# According to PMC4016962 (Molecules, 2014):
# Target: T1, B. anthracis DHFR (Bacillus anthracis, UniProt Q81R22)
# T1 construct: gene dfrA
# Assay: biochemical
# T1 sequence (Q81R22 1-162): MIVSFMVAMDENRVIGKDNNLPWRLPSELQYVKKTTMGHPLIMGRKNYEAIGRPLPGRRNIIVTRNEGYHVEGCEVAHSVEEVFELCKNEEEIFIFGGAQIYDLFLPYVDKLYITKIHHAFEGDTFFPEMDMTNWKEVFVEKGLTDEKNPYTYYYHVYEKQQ
row,Compound,Ki
1,"COc1cc(Cc2cnc(N)nc2N)cc(/C=C/C(=O)N2N=Cc3ccccc3C2C)c1OC (racemic) [6a, (±)-(E)-3-(5-((2,4-Diaminopyrimidin-5-yl)methyl)-2,3-dimethoxyphenyl)-1-(1-methylphthalazin-2(1H)-yl)prop-2-en-1-one]",8.8 ± 0.2 nM
2,"CCC1c2ccccc2C=NN1C(=O)/C=C/c1cc(Cc2cnc(N)nc2N)cc(OC)c1OC (racemic) [6b, (±)-(E)-3-(5-((2,4-Diaminopyrimidin-5-yl)methyl)-2,3-dimethoxyphenyl)-1-(1-ethylphthalazin-2(1H)-yl)prop-2-en-1-one]",6.8 ± 0.2 nM
3,"CCCCC1c2ccccc2C=NN1C(=O)/C=C/c1cc(Cc2cnc(N)nc2N)cc(OC)c1OC (racemic) [6c, (±)-(E)-1-(1-n-Butylphthalazin-2(1H)-yl)-3-(5-((2,4-diaminopyrimidin-5-yl)methyl)-2,3-dimethoxyphenyl)prop-2-en-1-one]",7.9 ± 0.2 nM
4,"CCC(C)C1c2ccccc2C=NN1C(=O)/C=C/c1cc(Cc2cnc(N)nc2N)cc(OC)c1OC (racemic) [6d, (±)-(E)-1-(1-s-Butylphthalazin-2(1H)-yl)-3-(5-((2,4-diaminopyrimidin-5-yl)methyl)-2,3-dimethoxyphenyl)prop-2-en-1-one]",10.4 ± 0.2 nM
5,"COc1cc(Cc2cnc(N)nc2N)cc(/C=C/C(=O)N2N=Cc3ccccc3C2C2CC2)c1OC (racemic) [6e, (±)-(E)-1-(1-Cyclopropylphthalazin-2(1H)-yl)-3-(5-((2,4-diaminopyrimidin-5-yl)methyl)-2,3-dimethoxyphenyl)prop-2-en-1-one]",4.9 ± 0.2 nM
6,"COc1cc(Cc2cnc(N)nc2N)cc(/C=C/C(=O)N2N=Cc3ccccc3C2c2ccco2)c1OC (racemic) [6f, (±)-(E)-3-(5-((2,4-Diaminopyrimidin-5-yl)methyl)-2,3-dimethoxyphenyl)-1-(1-(furan-2-yl)phthalazin-2(1H)-yl)prop-2-en-1-one]",5.9 ± 0.2 nM
7,"COc1cc(Cc2cnc(N)nc2N)cc(/C=C/C(=O)N2N=Cc3ccccc3C2c2cccs2)c1OC (racemic) [6g, (±)-(E)-3-(5-((2,4-Diaminopyrimidin-5-yl)methyl)-2,3-dimethoxyphenyl)-1-(1-(thiophen-2-yl)-phthalazin-2(1H)-yl)prop-2-en-1-one]",8.4 ± 0.2 nM
8,"COc1cc(Cc2cnc(N)nc2N)cc(/C=C/C(=O)N2N=Cc3ccccc3C2c2ccccn2)c1OC (racemic) [6h, (±)-(E)-3-(5-((2,4-Diaminopyrimidin-5-yl)methyl)-2,3-dimethoxyphenyl)-1-(1-(pyridin-2-yl)phthalazin-2(1H)-yl)prop-2-en-1-one]",9 ± 0.2 nM
9,"COc1cc(Cc2cnc(N)nc2N)cc(/C=C/C(=O)N2N=Cc3ccccc3C2CC(=O)OC(C)(C)C)c1OC (racemic) [11a, t-Butyl (±)-(E)-2-(2-(3-(5-((2,4-Diaminopyrimidin-5-yl)methyl)-2,3-dimethoxyphenyl)acryloyl)-phthal-azin-2(1H)-yl)acetate]",59 ± 0.9 nM
10,"CCOC(=O)CC1c2ccccc2C=NN1C(=O)/C=C/c1cc(Cc2cnc(N)nc2N)cc(OC)c1OC (racemic) [11b, Ethyl (±)-(E)-2-(2-(3-(5-((2,4-Diaminopyrimidin-5-yl)methyl)-(2,3-dimethoxyphenyl)acryloyl)-phthal-azin-2(1H)-yl)acetate]",24.9 ± 0.3 nM
11,"COC(=O)CC1c2ccccc2C=NN1C(=O)/C=C/c1cc(Cc2cnc(N)nc2N)cc(OC)c1OC (racemic) [11c, Methyl (±)-(E)-2-(2-(3-(5-((2,4-Diaminopyrimidin-5-yl)methyl)-2,3-dimethoxyphenyl)acryloyl)-phthal-azin-2(1H)-yl)acetate]",20 ± 0.3 nM
